Laboratory results: patent US6841236B2, “Articles containing thioxanthone dyes” (3M Innovative Properties Co., priority 2001, dated 2005)

How the values were obtained:
Assay type in all cases: physicochemical
[1] = Daytime color of vinyl film with dye laminated to retroreflective sheeting; conditions: 0.18 g dye in 65 g GEON 178 / Elvacite 2013 mixture, 0.04 mm vinyl film on Scotchlite 3970
Description: (§1) The daytime color of each article was measured using a Labsphere BFC-450 Bispectral Colorimeter commercially available from Labsphere, North Sutton, N.H. The daytime chromaticity (x,y), total luminance factor (YT), and fluorescence luminance factor (YF; which is a measure of the fluorescent properties of the article) calculated for the CIE D65 and the CIE 1931 observer are provided in TABLE II
Examples 22-23 were prepared by independently stirring 0.18 g of the dye of Examples 1 and 3 into 65 g of a mixture composed of 42 wt.-% DIBK, xylol, and mineral spirit (1.7:2.3:1), 44 wt.-% of a polyvinyl chloride dispersion commercially available from PolyOne, Cleveland, Ohio under the trade designation “GEON 178” and 14 wt.-% of a polyacrylate commercially available from Ineos Acrylics Inc., Cordova, Tenn. under the trade designation “Elvacite 2013”. Each mixture was allowed to stand at room temperature for one hour prior to knife coating onto a pre-sized paper substrate. Each coated substrate was placed in a 150° F. (66° C.) oven for 1.5 minutes, followed by a 300° F. (149° C.) oven for 1.0 minute and a 400° F. (204° C.) oven for 0.75 minute, resulting in a 0.04 mm thick fluorescent colored vinyl film.
The resultant films were laminated to Scotchlite 3970 reflective sheeting on aluminum panels as described in Examples 8-10. Color values were measured as described in Examples 8-10 and the results set out in TABLE VI.

[2] = Daytime color of copolyester film with dye laminated to retroreflective sheeting; conditions: dye 0.2 wt.-% in copolyester resin, 0.1 mm film on Scotchlite 3970
Description: as §1
Examples 17-18 were prepared as described in Examples 8-10, except that the dyes of Examples 1 and 2 at a 0.2 wt.-% loading were independently incorporated into a copolyester resin. The copolyester resin was prepared using terephthalic and isophthalic acid in an 80/20 ratio and ethylene glycol in the conventional manner and analogous to the production of polyethylene terephthalate according to the method described in Macromolecular Syntheses, A Periodic Publication of Methods for the Preparation of Macromolecules, Collective Volume I, 1977, J. A. Moore, Editor, (John Wiley & Sons, New York; 1978);p. 17-21. The extrusion conditions for the copolyester were 254-260° C. using a single screw extruder and the resultant film thickness was 0.1 mm.
The resultant films were laminated to Scotchlite 3970 reflective sheeting on aluminum panels as described in Examples 8-10. Color values were measured as described in Examples 8-10 and the results set out in TABLE IV.

[3] = Daytime color of Paraloid B66 dye coating on retroreflective sheeting
Description: as §1
Examples 19-21 were prepared by independently stirring 0.10 parts of the dyes of Examples 1 and 3 and 6-methoxy-14H-anthra(2,1,9-mna)thioxanthene-14-one in a clear vehicle solution of 64.8 parts Dowanol DPMA and 38.2 parts Paraloid B66.
The fluorescent dye solutions were coated on Scotchlite 3970 reflective sheeting using a #16 wire wound bar. The coating was air dried for 5 minutes and then dried in a 120° C. oven for 45 minutes. Color values were measured as described in Examples 8-10 and the results set out in TABLE V.

[4] = Daytime color of polyurethane film with dye laminated to retroreflective sheeting; conditions: dye 0.2 wt.-% in aliphatic polyester polyurethane PN03.214, 0.1 mm film on Scotchlite 3970
Description: as §1
Examples 24-27 were prepared as described in Examples 8-10, except that the dyes of Examples 1, 3, 6-(2-hydroxy-ethoxy)-14H-anthra(2,1,9-mna)thioxanthene-14-one (described by Carlini et al.) and 6-methoxy-14H-anthra(2,1,9-mna)thioxanthene-14-one were independently used at 0.2 wt.-% loading in an aliphatic polyester polyurethane resin commercially available from Huntsman Polyurethanes, West Deptford, N.J., USA under the trade designation “PN03.214”. The extrusion conditions for the polyurethane were 154-191° C. and the resultant film thickness was 0.1 mm.
The resultant films were laminated to Scotchlite 3970 reflective sheeting on aluminum panels as described in Examples 8-10. Color values were measured as described in Examples 8-10 and the results set out in TABLE VII.

[5] = Daytime color of polycarbonate sheet with dye laminated to retroreflective sheeting (Labsphere BFC-450 Bispectral Colorimeter); conditions: 0.2% dye in polycarbonate FCR-2407, 0.1 mm sheet on Scotchlite 3970; CIE D65, CIE 1931 observer
Description: Examples 8-10 were prepared with the compounds of Examples 1 and 2 and 6-methoxy-14H-anthra(2,1,9-mna)thioxanthene-14-one at a 0.2% loading in polycarbonate FCR-2407. Extrusion conditions for the polycarbonate were 260-304° C. using a single screw extruder. Optically transparent pressure sensitive adhesive with a liner on both sides of the adhesive was laminated to the 0.1 mm thick sheet of polycarbonate by removing one of the liners from the adhesive and then applying the exposed adhesive to the polycarbonate sheet with two passes of a roller using hand pressure.
The remaining liner was removed from the adhesive and the polycarbonate sheet construction was laminated to retroreflective sheeting commercially available from 3M under the trade designation “Scotchlite Diamond Grade LDP Reflective Sheeting Series 3970” (Scotchlite 3970) with two passes of a roller using hand pressure. The Scotchlite 3970 reflective sheeting had previously been laminated to a 7 cm wide by 28 cm long aluminum panel (6061T6 alloy with etch and desmut surface from Q Panel Company, Cleveland, Ohio) with two passes of a roller with hand pressure.
as §1

[6] = 0.10 parts dye in 64.8 parts Dowanol DPMA and 38.2 parts Paraloid B66, coated on Scotchlite 3970 with #16 wire wound bar, dried

CCCCCCCCOc1cc2c3ccccc3c(=O)c3ccc4c5ccccc5sc1c4c32 [Example 1, 6-n-Octyloxy-14H-anthra(2,1,9mna)thioxanthene-14-one]
Y (daytime chromaticity) [1]: 0.2762
YF (fluorescence luminance factor) [1]: 12.31
YT (total luminance factor) [1]: 23.82
x (daytime chromaticity) [1]: 0.5149
YF (fluorescence luminance factor) [2]: 11.70
YT (total luminance factor) [2]: 22.83
x (daytime chromaticity) [2]: 0.5429
y (daytime chromaticity) [2]: 0.3056
YF (fluorescence luminance factor) [3, 6]: 11.09
YT (total luminance factor) [3, 6]: 30.10
x (daytime chromaticity) [3, 6]: 0.4381
y (daytime chromaticity) [3, 6]: 0.2980
appearance of coated article ([3]; dye in Paraloid B66 coating on Scotchlite 3970): bright fluorescent pink appearance
X (daytime chromaticity) [4]: 0.5739
YF (fluorescence luminance factor) [4]: 11.83
YT (total luminance factor) [4]: 17.46
y (daytime chromaticity) [4]: 0.2692
YF (fluorescence luminance factor) [5]: 14.6
YT (total luminance factor) [5]: 32.87
x (daytime chromaticity) [5]: 0.5232
y (daytime chromaticity) [5]: 0.3132
